The values that follow come from paper PMC11143095, “Chemically engineered essential oils prepared through thiocyanation under solvent-free conditions: chemical and bioactivity alteration” (Natural Products and Bioprospecting, 2024).

The target in the assay is T1, AChE from Electrophorus electricus (Electrophorus electricus, UniProt O42275).
T1 construct: purchased Sigma-Aldrich (St. Louis, MO, USA)
Nature of the assay: biochemical. The following applies: for IC50: Ellman's reagent, microplate, 37 °C, pH 7.5, read-out: half maximal inhibitory concentration (IC50) against AChE. On the procedure:
Microplate assays utilizing Ellman’s reagent were performed to quantitatively assess the inhibitory activity of the isolated compounds against AChE [67].
Ammonium thiocyanate, sodium thiosulfate pentahydrate, anhydrous sodium sulfate and iodine were purchased from Cicarelli Laboratorios (San Lorenzo, Santa Fe). AChE from Electrophorus electricus EC 3.1.1.7, Fast blue salt B (FBB), α-naphthol, α-naphthyl acetate (α-NAc), and CDCl3, were purchased from Sigma-Aldrich (St. Louis, MO, USA). Acetonitrile (LCMS grade) was acquired from Carlo Erba Reagents (Val de Reuil, France) and formic acid from Merck. Aluminium TLC sheets coated with Silica gel 60 F were purchased from Merck (Darmstadt, Germany). Agar was purchased from Britania (Bs. As., Argentina).
Inhibition percentage determinations were carried out using the method applied by Osella et al.. Wells were filled in triplicate with AChE solution (in 0.1 M phosphate buffer, pH 7.5, and 13.7 µU/mL end concentration per well), Ellman’s reagent (DTNB, 5,5dithio-bis-(2-nitrobenzoic acid)), the same buffer solution (0.31 mM end concentration per well) and 10 µL of test compound in DMSO solution (0.05 µM end concentration per well). […] The enzymatic reaction was initiated by addition of acetylthiocholine iodide (0.46 mM end concentration per well). The final volume per well was 270 µL. The plate was shaken for 2 s and the increase in absorbance at 405 nm was monitored at 37 °C for 15 min. For IC50 determination, ten serial dilutions of the compounds were prepared in DMSO, following equally spaced points on a neperian logarithm scale, starting at 2.16 mM and finishing at 0.00023 mM (end concentration per well: 80.00 to 0.00839 µM). IC50 calculated using Prism V5.01 (GraphPad Software Inc., La Jolla, CA, USA) applying a non linear regression curve fit for a log[inhibitor] vs. normalized answer model with variable slope.
(In general: Ellman's reagent forms a yellow product with free thiols.)

SMILES strings stand for the structures.

T1 sequence (O42275 24-633): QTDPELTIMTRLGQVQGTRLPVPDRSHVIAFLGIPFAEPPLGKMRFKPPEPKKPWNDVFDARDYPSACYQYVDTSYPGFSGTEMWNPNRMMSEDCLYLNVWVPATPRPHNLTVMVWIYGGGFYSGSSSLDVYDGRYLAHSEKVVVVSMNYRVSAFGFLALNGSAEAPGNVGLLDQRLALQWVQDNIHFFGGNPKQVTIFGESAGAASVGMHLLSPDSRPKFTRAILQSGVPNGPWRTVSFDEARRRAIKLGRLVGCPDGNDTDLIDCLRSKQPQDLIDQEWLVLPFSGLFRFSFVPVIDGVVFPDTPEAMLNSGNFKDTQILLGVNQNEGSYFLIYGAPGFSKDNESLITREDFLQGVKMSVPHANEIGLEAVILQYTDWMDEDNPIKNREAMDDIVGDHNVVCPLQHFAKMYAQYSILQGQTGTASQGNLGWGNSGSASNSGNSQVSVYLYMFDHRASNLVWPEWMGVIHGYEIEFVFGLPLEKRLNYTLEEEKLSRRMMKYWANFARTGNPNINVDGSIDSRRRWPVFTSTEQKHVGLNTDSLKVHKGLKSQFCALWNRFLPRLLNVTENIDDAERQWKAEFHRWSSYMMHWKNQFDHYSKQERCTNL

Take `Cc1cc(Sc2cc(C)c(O)cc2C(C)C)c(C(C)C)cc1O` [compound 2, 4,4′-thiobis(5-isopropyl-2-methylphenol)]: the IC50 worked out at 158 ± 59 nM.

`Cc1cc(SC#N)c(C(C)C)cc1O` [compound 1, 5-isopropyl-2-methyl-4-thiocyanatophenol]: the IC50 was 4086 ± 35 nM.

Consider `Cc1cc(Sc2nsc(-c3cc(C)c(O)cc3C(C)C)n2)c(C(C)C)cc1O` [compound 3, 4-((5-(4-hydroxy-2-isopropyl-5-methylphenyl)-1,2,4-thiadiazol-3-yl)thio)-5-isopropyl-2-methylphenol], for which the IC50 is 56 ± 25 nM.

For the molecule `Cc1cc(Sc2nsc(Sc3cc(C)c(O)cc3C(C)C)n2)c(C(C)C)cc1O` [compound 4], the IC50 worked out at 34 ± 16 nM.

On to `Cc1ccc(C(C)C)cc1O` [carvacrol, reference compound], for which the “activity against AChE (in words)” value is “inactive”.
